One data set concerns HCE-T cells. The experiment in a line: Cell viability test in HCE-T cells (Cell Counting Kit-8, 24 hours). The class given is cell-based, human. The following applies: mean, N=3. As to the method: To confirm cell viability, HCE-T cells were seeded at 10000 cells per well in a 96-well polystyrene microplate (IWAKI). The cells were cultured in a CO2 incubator at 37° C. for 16 hours to allow the cells to adhere. The culture of the HCE-T cells was performed using DMEM/F12 medium containing 10 ng/mL hEGF, 5 μg/mL insulin, 5% FBS, and 40 μg/mL gentamicin.
Each test substance was dissolved in dimethyl sulfoxide to prepare a stock solution with a concentration that is 1000 times the test concentration. DMEM/F12 medium containing 40 μg/mL gentamicin was used as assay medium. The medium containing serum and growth factors was removed and replaced with assay medium in which each test substance was appropriately serially diluted, and the cell viability was measured after 24 hours. Cell Counting Kit-8 (Dojindo Laboratories) was added to each well in an amount that is 1/10 the amount of the medium. Color reaction was performed for 1 hour in a CO2 incubator, and absorbance at 450 nm was measured with a microplate reader (Corona Electric Co., Ltd.). […] The test was performed at N=3.
In general terms: Tetrazolium dyes change colour on reduction, which living cells bring about.

For data set [1], the target named is binding between NRF2 and KEAP1 (Homo sapiens (Human), UniProt Q14145). Briefly: Binding assay: inhibition of binding between NRF2 and KEAP1 by BRET (NanoLuc-NRF2 and KEAP1-HaloTag cell lysates). The following applies: N=2. The procedure:
The inhibitory activity of each compound on the binding between NRF2 and KEAP1 was measured by bioluminescence resonance energy transfer (BRET) assay. A plasmid having human NRF2 (Original Clone ID: ha01449s1) sequence fused with NanoLuc (19 kDa, Promega) at the N-terminal was transduced into HCE-T cells (immortalized human corneal epithelial cells) using FuGENE HD (Promega). 48 hours after transduction, the cell lysate was collected and used as an NRF2-expressing cell lysate. A plasmid having human KEAP1 (Original Clone ID: cs00328) sequence fused with HaloTag (33 kDa, Promega) at the C-terminal was transduced into HCE-T cells using FuGENE HD (Promega). After 24 hours, HaloTag Nano BRET 618 Ligand (Promega) was added to the medium. The cell lysate cultured for 24 hours after the addition was used as a KEAP1-expressing cell lysate.
The NRF2-expressing cell lysate and the KEAP1-expressing cell lysate were adjusted so that the luminescence and fluorescence intensities per well were constant. Tables 1 and 2 show the formulation of each reaction solution.
Each test substance at a concentration 100 times higher than the test concentration was dissolved in dimethylsulfoxide for adjustment. 49 μL of KEAP1 solution was added to a 96-well polystyrene microplate (FALCON) to which 1 μL of each test substance solution was added, followed by incubation for 15 minutes. Then, 50 μL of NRF2 solution was added to the above solution, followed by incubation for 1 hour. To measure the binding between NRF2 and KEAP1, NanoBRET Nano-Glo Substrate (Promega) diluted with Opti-Mem (Thermo Fisher Scientific) was added, followed by shaking for 30 seconds. Then, luminescence and fluorescence were measured using the GloMax Discover System (Promega). A 495-nm short pass filter and a 600-nm long pass filter were respectively used to measure donor and acceptor emission values. A value obtained by dividing the acceptor emission value by the donor emission value was regarded as BRET value. A BRET value when the compound was not added, and a BRET value when the KEAP1 solution was not added were respectively used as binding rates of 100% and 0%, and the binding rate when the compound was added was calculated. Further, using this binding rate, the 50% binding inhibitory activity concentration (IC50) was calculated from the following formula. The test was performed at N=2.
IC50(M)=10^(LOG(A/B)×(50−C)/(D−C)+LOG(B)) • A: higher concentration out of 2 close concentrations across the inhibition rate of 50% • B: lower concentration out of 2 close concentrations across the inhibition rate of 50% • C: inhibition rate at B • D: inhibition rate at A
(§1) Compounds A1/A2, compounds B1/B2, compounds C1/C2, and compounds D1/D2 were used as test substances. Binding assay and reporter assay were performed as in Test Example 1-1 and Test Example 1-2.
(In general: Bioluminescence resonance energy transfer reports proximity on the nanometre scale.)

In the next data set the test system is NRF2. Briefly: Reporter assay: NRF2 activating action in HCE-T/ARE-Luc cells (ARE luciferase reporter gene assay). The format is cell-based, human. As to conditions: N=3. The procedure:
The NRF2 activating action of the compounds on cells was measured by a reporter gene assay. pGL4.37[luc2P/ARE/Hygro] (Promega) was introduced into HCE-T cells using FuGENE HD. Cells that acquired drug resistance as a result of transduction were screened by culture in the presence of 50 μg/mL hygromycin, and a clone strain, HCE-T/ARE-Luc cells, was established.
HCE-T/ARE-Luc cells were cultured using DMEM/F12 medium containing 10 ng/mL hEGF, 5 μg/mL insulin, 5% FBS, and 40 μg/mL gentamicin. As the assay medium, a medium with the same composition as that for the culture was prepared using phenol red-free DMEM/F12 medium.
HCE-T/ARE-Luc cells were seeded in a 96-well polystyrene microplate (FALCON) with 10000 cells per well. The cells were incubated in a CO2 incubator at 37° C. for 16 hours to allow for cell adhesion. The test substance was dissolved in dimethylsulfoxide to prepare a solution at a concentration 1000 times higher than the test concentration. The cells were treated with the test substance diluted 1000-fold with the assay medium and cultured for 24 hours. When measuring the activity of the reporter, the medium containing the test substance was removed, and then a new medium and a substrate of ONE-GloEX Luciferase Assay System (Promega) were added. The plate was shaken for 1 minute and then allowed to stand at ordinary temperature for 10 minutes, and luminescence was detected using the GloMax Discover System (Promega).
The test was performed at N=3, and the 50% activation concentration of each test substance was calculated by creating a calibration curve between two concentrations across the luminescence incensity of 50%.
as §1
In general terms: A reporter such as luciferase makes a cellular process visible.

Setting [2] is: Test Example 3, separated diastereomers, mean.
The mark [3] stands for this setting: Test Example 1-1, NRF2-KEAP1 BRET.

Marks after values point to notes of the source that are not given here.

Sequence of binding between NRF2 and KEAP1 (Q14145 whole entry, the tested form may be a part): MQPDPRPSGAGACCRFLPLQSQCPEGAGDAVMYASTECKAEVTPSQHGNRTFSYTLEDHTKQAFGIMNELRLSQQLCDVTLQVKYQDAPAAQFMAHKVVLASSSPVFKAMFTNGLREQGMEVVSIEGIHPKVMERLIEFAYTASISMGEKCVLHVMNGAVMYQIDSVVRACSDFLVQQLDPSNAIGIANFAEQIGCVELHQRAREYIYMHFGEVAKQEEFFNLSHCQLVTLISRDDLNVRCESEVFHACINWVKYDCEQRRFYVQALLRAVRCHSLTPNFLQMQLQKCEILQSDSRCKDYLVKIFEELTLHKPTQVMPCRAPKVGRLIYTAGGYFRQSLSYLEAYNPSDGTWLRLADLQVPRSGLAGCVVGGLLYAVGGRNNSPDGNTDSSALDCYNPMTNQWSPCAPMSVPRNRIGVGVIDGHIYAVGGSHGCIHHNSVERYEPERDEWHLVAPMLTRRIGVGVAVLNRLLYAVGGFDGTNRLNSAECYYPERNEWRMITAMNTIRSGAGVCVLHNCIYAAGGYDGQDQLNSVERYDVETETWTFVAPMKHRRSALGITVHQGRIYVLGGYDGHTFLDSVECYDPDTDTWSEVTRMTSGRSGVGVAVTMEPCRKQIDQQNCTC

As for `CC[C@@H]1CN(Cc2cc(C(c3ccc(C(C)=O)s3)C(C)(C)C(=O)O)ccc2C)S(=O)(=O)c2cnccc2O1` (single isomer, unassigned) [Compound D1], the “Cytotoxic concentration (concentration that does not affect cell viability)” value with HCE-T cells was 34.1 µM. Moreover, in data set [1] (setting [2]), the half-inhibitory concentration (IC50) (in general, the concentration needed to halve the response being measured) is 0.17 nM. A half-maximal response in the data set on NRF2 (setting [2]) (EC50) required 0.67 nM.
Turning to `CC[C@@H]1CN(Cc2cc(C(c3ccc(C(C)=O)s3)C(C)(C)C(=O)O)ccc2C)S(=O)(=O)c2cnccc2O1` (single isomer, unassigned) [Compound D2], the “Cytotoxic concentration (concentration that does not affect cell viability)” value with HCE-T cells is 14.7* uM. The IC50 in data set [1] (setting [2]) is 5.17 nM. Besides, the EC50 – broadly, the concentration needed to bring the measured effect to its halfway point – in the data set with NRF2 (setting [2]) was found to be 513 nM.
The molecule `CC[C@@H]1CN(Cc2cc(C(c3cc(C)c(C(C)=O)s3)C(C)C(=O)O)ccc2C)S(=O)(=O)c2ccccc2O1` (stereo partly drawn) [Compound 2, 3-(5-acetyl-4-methylthiophen-2-yl)-3-(3-{[(R)-4-ethyl-1,1-dioxide-3,4-dihydro-2H-benzo[b][1,4,5]oxathiazepin-2-yl]methyl}-4-methylphenyl)-2-methylpropanoic acid] had an IC50 in data set [1] (setting [3]) of 0.25 nM. In the data set on NRF2 (Homo sapiens, Test Example 1-2, HCE-T/ARE-Luc cells, 24 hours), this molecule returned a concentration giving a half-maximal response (EC50) of 9 nM.
As for `CC[C@@H]1CN(Cc2cc(C(CC(=O)O)c3ccc(C(N)=O)s3)ccc2C)S(=O)(=O)c2ccccc2O1` (stereo partly drawn) [Compound 23, 3-(5-carbamoylthiophen-2-yl)-3-(3-{[(R)-4-ethyl-1,1-dioxide-3,4-dihydro-2H-benzo[b][1,4,5]oxathiazepin-2-yl]methyl}-4-methylphenyl)propanoic acid], the IC50 in data set [1] (setting [3]) was 0.39 nM.
Same read-out and setting: as for `CC[C@@H]1CN(Cc2cc(C(c3ccc(C(C)=O)s3)C(C)(C)C(=O)O)ccc2C)S(=O)(=O)c2cnccc2O1` (stereo partly drawn) [Compound 48, 3-(5-acetylthiophen-2-yl)-3-(3-{[(R)-4-ethyl-1,1-dioxide-3,4-dihydro-2H-pyrido[4,3-b][1,4,5]oxathiazepin-2-yl]methyl}-4-methylphenyl)-2,2-dimethylpropanoic acid], the figure is 0.39 nM; as for `CC[C@@H]1CN(Cc2cc(C(c3cc(F)c(C(C)=O)s3)C(C)(C)C(=O)O)ccc2C)S(=O)(=O)c2cnccc2O1` (stereo partly drawn) [Compound 49, 3-(5-acetyl-4-fluorothiophen-2-yl)-3-(3-{[(R)-4-ethyl-1,1-dioxide-3,4-dihydro-2H-pyrido[4,3-b][1,4,5]oxathiazepin-2-yl]methyl}-4-methylphenyl)-2,2-dimethylpropanoic acid], 0.31 nM; as for `CC[C@@H]1CN(Cc2cc(C(c3cc(OC)c(C(C)=O)s3)C(C)(C)C(=O)O)ccc2C)S(=O)(=O)c2cnccc2O1` (stereo partly drawn) [Compound 50, 3-(5-acetyl-4-methoxythiophen-2-yl)-3-(3-{[(R)-4-ethyl-1,1-dioxide-3,4-dihydro-2H-pyrido[4,3-b][1,4,5]oxathiazepin-2-yl]methyl}-4-methylphenyl)-2,2-dimethylpropanoic acid], 0.19 nM.
Still for that read-out and setting: as for `CC[C@@H]1CN(Cc2cc(C(c3cc(OC)c(C(C)=O)s3)C(C)C(=O)O)ccc2C)S(=O)(=O)c2cnccc2O1` (stereo partly drawn) [Compound 51, 3-(5-acetyl-4-methoxythiophen-2-yl)-3-(3-{[(R)-4-ethyl-1,1-dioxide-3,4-dihydro-2H-pyrido[4,3-b][1,4,5]oxathiazepin-2-yl]methyl}-4-methylphenyl)-2-methylpropanoic acid], the figure is 0.41 nM; as for `CC[C@@H]1CN(Cc2cc(C(c3cc(F)c(C(C)=O)s3)C(C)C(=O)O)ccc2C)S(=O)(=O)c2cnccc2O1` (stereo partly drawn) [Compound 52, 3-(5-acetyl-4-fluorothiophen-2-yl)-3-(3-{[(R)-4-ethyl-1,1-dioxide-3,4-dihydro-2H-pyrido[4,3-b][1,4,5]oxathiazepin-2-yl]methyl}-4-methylphenyl)-2-methylpropanoic acid], 0.27 nM.
The same measure, in the same setting: the value for `CC[C@@H]1CN(Cc2cc(C(CC(=O)O)c3ccc(C(C)=O)s3)ccc2C)S(=O)(=O)c2cnccc2O1` (stereo partly drawn) [Compound 53, 3-(5-acetylthiophen-2-yl)-3-(3-{[(R)-4-ethyl-1,1-dioxide-3,4-dihydro-2H-pyrido[4,3-b][1,4,5]oxathiazepin-2-yl]methyl}-4-methylphenyl)propanoic acid] was 2.3 nM.
As to `CC[C@@H]1CN(Cc2cc([C@@H](c3ccc(C(C)=O)s3)[C@@H](C)C(=O)O)ccc2C)S(=O)(=O)c2ccccc2O1` [Compound A1, (2R,3S)-3-(5-acetylthiophen-2-yl)-3-(3-{[(R)-4-ethyl-1,1-dioxide-3,4-dihydro-2H-benzo[b][1,4,5]oxathiazepin-2-yl]methyl}-4-methylphenyl)-2-methylpropanoic acid], the “Cytotoxic concentration (concentration that does not affect cell viability)” value with HCE-T cells worked out at 111.4 µM. The IC50 in data set [1] (setting [2]) was found to be 0.14 nM. This molecule registered an EC50 in the data set with NRF2 (setting [2]) of 5.82 nM.
For `CC[C@@H]1CN(Cc2cc(C(c3ccc(C(C)=O)s3)[C@H](C)C(=O)O)ccc2C)S(=O)(=O)c2ccccc2O1` (stereo partly drawn) [Compound A2], in that order: 65.3** uM, 0.71 nM and 317 nM.
For the molecule `CC[C@@H]1CN(Cc2cc([C@@H](c3ccc(C(C)=O)s3)[C@@H](C)C(=O)O)ccc2C)S(=O)(=O)c2cnccc2O1` [Compound B1, (2R,3S)-3-(5-acetylthiophen-2-yl)-3-(3-{[(R)-4-ethyl-1,1-dioxide-3,4-dihydro-2H-pyrido[4,3-b][1,4,5]oxathiazepin-2-yl]methyl}-4-methylphenyl)-2-methylpropanoic acid], the “Cytotoxic concentration (concentration that does not affect cell viability)” value in the data set on HCE-T cells was 345.4 µM. Further, the concentration for half-maximal inhibition (IC50) in data set [1] (setting [2]) amounted to 0.17 nM. Moreover, the EC50 with NRF2 (setting [2]) is 0.98 nM.
Regarding `CC[C@@H]1CN(Cc2cc(C(c3ccc(C(C)=O)s3)[C@H](C)C(=O)O)ccc2C)S(=O)(=O)c2cnccc2O1` (stereo partly drawn) [Compound B2], the “Cytotoxic concentration (concentration that does not affect cell viability)” value in the data set on HCE-T cells is 181.1* uM. For the same molecule, the IC50 in data set [1] (setting [2]) was 1.01 nM. The same molecule registered an EC50 in the data set on NRF2 (setting [2]) of 90.1 nM.
Taken in the same sequence, the figures for `CC[C@@H]1CN(Cc2cc([C@@H](c3cc(OC)c(C(C)=O)s3)[C@@H](C)C(=O)O)ccc2C)S(=O)(=O)c2cnccc2O1` [Compound C1, (2R,3S)-3-(5-acetyl-4-methoxythiophen-2-yl)-3-(3-{[(R)-4-ethyl-1,1-dioxide-3,4-dihydro-2H-pyrido[4,3-b][1,4,5]oxathiazepin-2-yl]methyl}-4-methylphenyl)-2-methylpropanoic acid] were 53.5 µM, 0.15 nM and 3.12 nM.

The record behind these values is US20240132519A1, “NRF2-ACTIVATING COMPOUND” (SENJU PHARMACEUTICAL CO., LTD., priority 2020, published 2024).
